Data from patent US20210046085A1, “TREATMENT OF ADVANCED ESTROGEN RECEPTOR POSITIVE BREAST CANCER” (Pantarhei Oncology B.V., priority 2018, published 2021).
Read-outs that look alike come from different tables or passages of the source.

Assays:
MCF-7 cells = settings: and higher (288 pg/ml); cited from earlier work
[1] = Single dose pharmacokinetics study of oral estriol in postmenopausal women; assay type: in vivo, human; settings: for concentration at 24 h / concentration at 48 h / concentration at 72 h: female, human, plasma, read-out: Average plasma level; for Average plasma level: 0-24 hours
Method: A single dose pharmacokinetics study was conducted to evaluate the pharmacokinetics of different oral dosages of estriol in postmenopausal women. In total 16 women were assigned to two different groups (Cohort A and Cohort B). Each Cohort received two estriol treatments. […] A wash-out period of 7 days was taken into account between the treatments.

[2] = system: estrogen response element (ERE); settings: breast cancer cells; cited from earlier work
[3] = system: long term estrogen deprived MCF7 breast cancer cells (LTED cells); experiment: Cell count in long term estrogen deprived MCF7 breast cancer cells (LTED cells); assay type: cell-based, human; settings: for Cell number per well: cell count on Day 7
Method: LTED cells were plated in 6-well plates at a density of 30,000 cells per well. The cells were maintained in phenol red free IMEM with 5% charcoal stripped FBS (DCC-FBS). On Day 3, the medium was replaced with fresh phenol red free IMEM with 5% DCC-FBS. […] The final vehicle concentration was 0.1% ethanol for all experiments. Each treatment was done in duplicate.
On Day 5, the medium was changed and on Day 7 plates were subjected to a cell count analysis.

[4] = single oral dose of 12 mg, postmenopausal women, cited from earlier work
T-47D cells = settings: and higher (288 pg/ml); cited from earlier work
[5] = cited from earlier work
[6] = cited from earlier work; remark: listed apart in the source
SHBG = molecular target: T1, SHBG (Homo sapiens, UniProt P04278); settings: cited from earlier work
T1 sequence (P04278 30-402): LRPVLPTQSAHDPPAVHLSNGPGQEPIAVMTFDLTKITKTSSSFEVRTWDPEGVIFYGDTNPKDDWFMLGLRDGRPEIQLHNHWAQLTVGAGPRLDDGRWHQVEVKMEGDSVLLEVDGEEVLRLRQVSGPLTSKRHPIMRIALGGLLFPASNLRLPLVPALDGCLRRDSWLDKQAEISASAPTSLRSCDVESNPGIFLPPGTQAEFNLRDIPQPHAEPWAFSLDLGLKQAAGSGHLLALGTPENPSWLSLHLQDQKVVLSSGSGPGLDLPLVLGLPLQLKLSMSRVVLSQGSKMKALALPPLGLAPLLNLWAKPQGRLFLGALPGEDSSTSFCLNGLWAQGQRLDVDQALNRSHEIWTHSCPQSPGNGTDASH

## C[C@]12CC[C@@H]3c4ccc(O)cc4CC[C@H]3[C@@H]1C[C@@H](O)[C@@H]2O [estriol, estra-1,3,5(10)-triene-3,16α,17β-triol]
MCF-7 cells
  Concentration exerting a mitogenic effect: ≥ 10^−9 M
[1]; oral dose 5 mg
  concentration at 24 h: 0.017 ± 0.011 ng/mL
  concentration at 48 h: 0.011 ± 0.015 ng/mL
  concentration at 72 h: 0.002 ± 0.006 ng/mL
  Average plasma level: 28 pg/mL
[1]; oral dose 10 mg
  concentration at 24 h: 0.047 ± 0.067 ng/mL
  concentration at 48 h: 0.012 ± 0.015 ng/mL
  concentration at 72 h: 0.001 ± 0.002 ng/mL
  Average plasma level: 39 pg/mL
[1]; oral dose 20 mg
  concentration at 24 h: 0.064 ± 0.041 ng/mL
  concentration at 48 h: 0.03 ± 0.01 ng/mL
  concentration at 72 h: 0.008 ± 0.012 ng/mL
  Average plasma level: 103 pg/mL
[1]; oral dose 40 mg
  concentration at 24 h: 0.121 ± 0.113 ng/mL
  concentration at 48 h: 0.052 ± 0.014 ng/mL
  concentration at 72 h: 0.013 ± 0.008 ng/mL
  Average plasma level: 110 pg/mL
[1]; high oral dose levels, postmenopausal women
  Tolerability: well tolerated
[1]; oral administration of 20 mg or 40 mg estriol
  Plasma levels of estriol after 72 hours: still significant after 72 hours
[1]; oral administration of estriol 5-40 mg
  Plasma levels of estriol over 24 hours: remained fairly constant over 24 hours
[1]; single oral dose 5-40 mg
  Plasma levels of estriol late after dosing: still measurable up to 72 hrs post dosing
  Time of second increase after dosing (enterohepatic circulation): 4 to 6 h
[1]; single oral dose 5-40 mg, approximately
  Time of peak levels after dosing: 1 to 2 h
[2]
  Concentration at which effects on ERE activation were visible: 10^−10 M
[3]
  Growth of LTED cells (result in words): able to inhibit the growth of LTED cells
[3]; 10^−5 M estriol
  Cell number per well: 0.11 ×10^6
[3]; 10^−6 M estriol
  Cell number per well: 0.18 ×10^6
[3]; 10^−7 M estriol
  Cell number per well: 0.21 ×10^6
[3]; 10^−8 M estriol
  Cell number per well: 0.22 ×10^6
[3]; 10^−9 M estriol
  Cell number per well: 0.26 ×10^6
[3]; 10^−10 M estriol
  Cell number per well: 0.56 ×10^6
[3]; 10^−11 M estriol
  Cell number per well: 0.92 ×10^6
[3]; 10^−12 M estriol
  Cell number per well: 1.17 ×10^6
[3]; no significant further inhibition at higher concentrations
  Concentration at which peak inhibition is observed: 10^−9 M
[4]; conversion of pmol/L value
  Initial increase in estriol levels: 144 to 288 pg/mL
[4]; lasted about four hours
  Initial increase in estriol levels: 500 to 1000 pmol/L
T-47D cells
  Concentration exerting a mitogenic effect: ≥ 10^−9 M
[5]; oral administration of 6 mg estriol
  Peak levels: 80 to 220 pg/mL
[5]; oral administration of 12 mg
  Peak levels: 150 to 490 pg/mL
[6]; Maturitas (1990), 12:171-197
  Half-life after oral administration: 9 to 10 h
[6]; Summary of Product Characteristics of Synapause
  Half-life after oral administration: 1.5 h
[6]; oral administration
  Conjugated in the intestine to glucuronides: 80-90%
  Conjugated in the intestine to sulfates: 10-20%
  Fraction that reaches the circulation: 1-2%
SHBG
  Binding to SHBG: does not bind to SHBG

## C[C@]12CC[C@@H]3c4ccc(O)cc4CC[C@H]3[C@@H]1CC[C@@H]2O [estradiol, 17beta-estradiol]
SHBG; Hammond GL et al., Climacteric 2008
  Binding to SHBG: about 40%
